According to patent US12208105B2, “Methods for attenuating graft-versus-host disease and opportunistic infections” (priority 2018, dated 2025):

Legend:
[1] = test system: B6 into BALB/c aGVHD model; assay: aGVHD, B6 into BALB/c MHC mismatched allograft, Tcons incubated ex vivo; type: in vivo, mouse
[2] = test system: B6 Tcons; assay: Tcon proliferation assay
Method: (A) B6 Tcons were purified and incubated with increasing concentrations of cosalane or equal volumes of DMSO vehicle in normal saline for one hour at 37° C. The cells were then washed and cultured on 24 well plates pre-coated with anti-CD3 and anti-CD28 antibody in the presence of supplemental IL-2 for 72 hours. The number of cells per well were then quantified.
Tcon proliferation assay: Purified CD25^− B6 Tcons were incubated with cosalane at the indicated concentrations or an equal volume of DMSO vehicle for one hour at 37° C. The cells were then washed and cultured on 24-well plates previously incubated overnight with anti-CD3 and anti-CD28 antibody at 10 μg/ml. The cells were cultured for 72 hours in complete media supplemented with murine interleukin-2 at 100 IUs/ml and then counted using a hemacytometer.
Purified B6 Tcons were isolated as before and incubated with cosalane at increasing concentrations ranging from 10 μg/ml (13 μM—the concentration used for the B6 into B6D2 survival experiment described in FIGS. 3D and 3E) to 30 μg/ml (39 μM) or an equal volume of DMSO diluted in normal saline. The cells were then washed, placed on 24 well plates pre-coated with anti-CD3 and anti-CD28 immunoglobulin, and cultured for 72 hours in media containing supplemental IL-2.

For CC(C)CCC[C@@H](C)[C@H]1CC[C@H]2[C@@H]3CC[C@H]4C[C@@H](CCC=C(c5cc(Cl)c(O)c(C(=O)O)c5)c5cc(Cl)c(O)c(C(=O)O)c5)CC[C@]4(C)[C@H]3CC[C@]12C [Cosalane, cosalane], which survival times ([1]; Tcons incubated 15 μg/ml in saline) is on record?
Its survival times is “prolonged survival times”.

And the survival ([1]; Tcons incubated 30 μg/ml)?
The survival was “most recipients surviving to the end of the study period”.

And the “Tcon cell numbers after culture” value ([2]; 10 μg/ml (13 μM) to 30 μg/ml (39 μM), one hour, washed, 72 hours anti-CD3/anti-CD28/IL-2)?
Its value is “no differences in cell numbers”.

What about the cytotoxicity in vitro ([2]; doses up to 39 μM) of the same compound?
The cytotoxicity in vitro was “did not induce any apparent cytotoxicity”.
